Data on 20 compounds can be found in US11325940B2, “Certain chemical entities, compositions, and methods” (NeuPharma, Inc., priority 2012, dated 2022).

Structures are written as SMILES. pIC50: −log10 of the molar value. Read-outs that look alike come from different tables or passages of the source.

This test has as its system A549 cells. Nature of the test: Inhibition of cancer cell growth, MTT assay. To be noted: Homo sapiens. Format: cell-based. On the procedure:
Inhibition of cell growth by compounds was measured using MTT assay (Mosmann, T., Journal of Immunological Methods, 1983, 65, 55-63). Tumor cell lines were purchased from ATCC (American Type Culture Collection, Manassas, Va.). All cell lines were maintained in RPMI 1640 (Hyclone) supplemented with 10% fetal bovine serum (FBS, Hyclone), glutamine (2 mM, Hyclone), and antibiotics (penicillin 100 U/mL and streptomycin 50 μg/mL) at 37° C. in a humidified atmosphere of 5% CO2 in air. Taxol (as a positive control, Sigma) and compounds were dissolved in DMSO (Sigma), and the final concentration of DMSO in the medium was 1%. Tumor cells were plated in 96-well plates at densities of about 4000 cells/well of a 96-well plate and allowed to adhere/grow for 24 h. They were then treated with various concentrations of drug for 72 h. 3-(4,5-Dimethylthiazol-2-yl)-2,5-diphenyltetrazolium bromide (MTT, Sigma) was used to determine the number of viable cells at the time of compound addition and the number of cells remaining after 72 h compound exposure. The number of cells remaining after 72 h was compared to the number of viable cells at the time of compound addition by measuring the absorbance at 570 nm, allowing for the calculation of growth inhibition.
All concentrations of compounds were tested in triplicate and controls were averaged over 4 wells. IC50 was calculated by plotting the concentration of compound vs the percentage of inhibition in treated wells using GraphPad Prism 5. […] The scale utilized in Table 3 is as follows: ++++ less than 20 nM; +++ between 20 nM and 100 nM; ++ between 100 nM and 1000 nM; and + greater than 1000 nM.
For orientation: Formazan colour is commonly taken as a measure of viable cells.

Setting [1] is: A549 cells, 72 h compound exposure, MTT, read-out: IC50.

One may read the pIC50 as −log10 of the IC50, conventionally taken in molar units. With `CC(C)[C@@H](N)C(=O)N[C@H]1CC[C@]2(C)[C@H]3CC[C@]4(C)[C@@H](c5ccc(=O)oc5)CC[C@]4(O)[C@@H]3CC[C@]2(O)C1` [Compound C29, (2R)-2-amino-N-((5S,8R,9S,10R,13R,14S,17R)-5,14-dihydroxy-10,13-dimethyl-17-(2-oxo-2H-pyran-5-yl)hexadecahydro-1H-cyclopenta[a]phenanthren-3-yl)-3-methylbutanamide], the pIC50 (A549, 72 h) was > 7.70.
Still for that read-out and setting: under `C[C@]12CC[C@@H](N)C[C@H]1CC[C@@H]1[C@@H]2CC[C@]2(C)[C@@H](c3ccc(=O)oc3)CC[C@]12O` [Compound C34, 5-((3R,5R,8R,9S,10S,13R,14S,17R)-3-amino-14-hydroxy-10,13-dimethylhexadecahydro-1H-cyclopenta[a]phenanthren-17-yl)-2H-pyran-2-one] stands < 6.00.
In the case of `C[C@]12CC[C@@H](NC(=O)N3CCOCC3)C[C@H]1CC[C@@H]1[C@@H]2CC[C@]2(C)[C@@H](c3ccc(=O)oc3)CC[C@]12O` [Compound C01, N-((3R,5R,8R,9S,10S,13R,14S,17R)-14-hydroxy-10,13-dimethyl-17-(2-oxo-2H-pyran-5-yl)hexadecahydro-1H-cyclopenta[a]phenanthren-3-yl)morpholine-4-carboxamide], the pIC50 under setting [1] is 6.00 to 7.00.
With `C[C@]12CC[C@H](NC(=O)N3CCCC3)C[C@H]1CC[C@@H]1[C@@H]2CC[C@]2(C)[C@@H](c3ccc(=O)oc3)CC[C@]12O` [Compound C06, N-((3S,5R,8R,9S,10S,13R,14S,17R)-14-hydroxy-10,13-dimethyl-17-(2-oxo-2H-pyran-5-yl)hexadecahydro-1H-cyclopenta[a]phenanthren-3-yl)pyrrolidine-1-carboxamide], the pIC50 (A549, 72 h) was > 7.70.
As to `CC(C)[C@@H](N)C(=O)N[C@H]1CC[C@@]2(C)[C@H](CC[C@@H]3[C@@H]2CC[C@]2(C)[C@@H](c4ccc(=O)oc4)CC[C@]32O)C1` [Compound C25, (R)-2-amino-N-((3S,5R,8R,9S,10S,13R,14S,17R)-14-hydroxy-10,13-dimethyl-17-(2-oxo-2H-pyran-5-yl)hexadecahydro-1H-cyclopenta[a]phenanthren-3-yl)-3-methylbutanamide], the pIC50 (A549, 72 h) is > 7.70.
As for `CN(C(=O)N1CCOCC1)C1CC[C@@]2(C)[C@H](CC[C@@H]3[C@@H]2CC[C@]2(C)[C@@H](c4ccc(=O)oc4)CC[C@]32O)C1` (stereo partly drawn) [Compound C23, N-((5R,8R,9S,10S,13R,14S,17R)-14-hydroxy-10,13-dimethyl-17-(2-oxo-2H-pyran-5-yl)hexadecahydro-1H-cyclopenta[a]phenanthren-3-yl)-N-methylmorpholine-4-carboxamide], the pIC50 (A549, 72 h) is 6.00 to 7.00.
Take `C[C@]12CC[C@H](NC(=O)NCCO)C[C@H]1CC[C@@H]1[C@@H]2CC[C@]2(C)[C@@H](c3ccc(=O)oc3)CC[C@]12O` [Compound C09, 1-((3S,5R,8R,9S,10S,13R,14S,17R)-14-hydroxy-10,13-dimethyl-17-(2-oxo-2H-pyran-5-yl)hexadecahydro-1H-cyclopenta[a]phenanthren-3-yl)-3-(2-hydroxyethyl)urea]: the pIC50 (A549, 72 h) was 7.00 to 7.70.
In the case of `C[C@]12CC[C@@H](NC(=O)NCCN)C[C@H]1CC[C@@H]1[C@@H]2CC[C@]2(C)[C@@H](c3ccc(=O)oc3)CC[C@]12O` [Compound C08, 1-(2-aminoethyl)-3-((3R,5R,8R,9S,10S,13R,14S,17R)-14-hydroxy-10,13-dimethyl-17-(2-oxo-2H-pyran-5-yl)hexadecahydro-1H-cyclopenta[a]phenanthren-3-yl)urea], the pIC50 under setting [1] was 6.00 to 7.00.
`C[C@]12CC[C@@H](NC(=O)NCCO)C[C@H]1CC[C@@H]1[C@@H]2CC[C@]2(C)[C@@H](c3ccc(=O)oc3)CC[C@]12O` [Compound C07, 1-((3R,5R,8R,9S,10S,13R,14S,17R)-14-hydroxy-10,13-dimethyl-17-(2-oxo-2H-pyran-5-yl)hexadecahydro-1H-cyclopenta[a]phenanthren-3-yl)-3-(2-hydroxyethyl)urea] gave a pIC50 (A549, 72 h) of 6.00 to 7.00.
As for `C[C@]12CCC(N3CCNCC3)C[C@H]1CC[C@@H]1[C@@H]2CC[C@]2(C)[C@@H](c3ccc(=O)oc3)CC[C@]12O` (stereo partly drawn) [Compound C15, 5-((5R,8R,9S,10S,13R,14S,17R)-14-hydroxy-10,13-dimethyl-3-(piperazin-1-yl)hexadecahydro-1H-cyclopenta[a]phenanthren-17-yl)-2H-pyran-2-one], the negative-log IC50 (pIC50) (A549, 72 h) is > 7.70.
Consider `C[C@]12CC[C@@H](NC(=O)N3CCNCC3)C[C@H]1CC[C@@H]1[C@@H]2CC[C@]2(C)[C@@H](c3ccc(=O)oc3)CC[C@]12O` [Compound C03, N-((3R,5R,8R,9S,10S,13R,14S,17R)-14-hydroxy-10,13-dimethyl-17-(2-oxo-2H-pyran-5-yl)hexadecahydro-1H-cyclopenta[a]phenanthren-3-yl)piperazine-1-carboxamide], for which the pIC50 under setting [1] is > 7.70.
On to `COC(=O)N(C)C1CC[C@@]2(C)[C@H](CC[C@@H]3[C@@H]2CC[C@]2(C)[C@@H](c4ccc(=O)oc4)CC[C@]32O)C1` (stereo partly drawn) [Compound C21, methyl ((5R,8R,9S,10S,13R,14S,17R)-14-hydroxy-10,13-dimethyl-17-(2-oxo-2H-pyran-5-yl)hexadecahydro-1H-cyclopenta[a]phenanthren-3-yl)(methyl)carbamate], for which the pIC50 (A549, 72 h) was > 7.70.
In the case of `C[C@]12CC[C@@H](NC(=O)CN)C[C@H]1CC[C@@H]1[C@@H]2CC[C@]2(C)[C@@H](c3ccc(=O)oc3)CC[C@]12O` [Compound C11, 2-amino-N-((3R,5R,8R,9S,10S,13R,14S,17R)-14-hydroxy-10,13-dimethyl-17-(2-oxo-2H-pyran-5-yl)hexadecahydro-1H-cyclopenta[a]phenanthren-3-yl)acetamide], under setting [1], the pIC50 is 7.00 to 7.70.
For the compound `COC(=O)N[C@H]1CC[C@@]2(C)[C@H](CC[C@@H]3[C@@H]2CC[C@]2(C)[C@@H](c4ccc(=O)oc4)CC[C@]32O)C1` [Compound C17, methyl ((3S,5R,8R,9S,10S,13R,14S,17R)-14-hydroxy-10,13-dimethyl-17-(2-oxo-2H-pyran-5-yl)hexadecahydro-1H-cyclopenta[a]phenanthren-3-yl)carbamate], the negative logarithm of the IC50 (pIC50) (A549, 72 h) was > 7.70.
On the same count and under the same terms, in the case of `C[C@]12CC[C@@H](NC(=O)N3CCCC3)C[C@H]1CC[C@@H]1[C@@H]2CC[C@]2(C)[C@@H](c3ccc(=O)oc3)CC[C@]12O` [Compound C05, N-((3R,5R,8R,9S,10S,13R,14S,17R)-14-hydroxy-10,13-dimethyl-17-(2-oxo-2H-pyran-5-yl)hexadecahydro-1H-cyclopenta[a]phenanthren-3-yl)pyrrolidine-1-carboxamide] it was 6.00 to 7.00; in that of `C[C@]12CC[C@H](NC(=O)[C@@H]3CCCN3)C[C@H]1CC[C@@H]1[C@@H]2CC[C@]2(C)[C@@H](c3ccc(=O)oc3)CC[C@]12O` [Compound C14, (S)-N-((3S,5R,8R,9S,10S,13R,14S,17R)-14-hydroxy-10,13-dimethyl-17-(2-oxo-2H-pyran-5-yl)hexadecahydro-1H-cyclopenta[a]phenanthren-3-yl)pyrrolidine-2-carboxamide], > 7.70; in that of `C[C@]12CCC(NC(=O)[C@H]3CCCN3)C[C@@]1(O)CC[C@@H]1[C@@H]2CC[C@]2(C)[C@@H](c3ccc(=O)oc3)CC[C@]12O` (stereo partly drawn) [Compound C31, (2R)-N-((5S,8R,9S,10R,13R,14S,17R)-5,14-dihydroxy-10,13-dimethyl-17-(2-oxo-2H-pyran-5-yl)hexadecahydro-1H-cyclopenta[a]phenanthren-3-yl)pyrrolidine-2-carboxamide], > 7.70.
`C[C@]12CC[C@@H](NC(=O)[C@@H]3CCCN3)C[C@H]1CC[C@@H]1[C@@H]2CC[C@]2(C)[C@@H](c3ccc(=O)oc3)CC[C@]12O` [Compound C13, (S)-N-((3R,5R,8R,9S,10S,13R,14S,17R)-14-hydroxy-10,13-dimethyl-17-(2-oxo-2H-pyran-5-yl)hexadecahydro-1H-cyclopenta[a]phenanthren-3-yl)pyrrolidine-2-carboxamide] had a negative logarithm of the IC50 (pIC50) (A549, 72 h) of 6.00 to 7.00.
Consider `C[C@]12CC[C@H](NS(C)(=O)=O)C[C@H]1CC[C@@H]1[C@@H]2CC[C@]2(C)[C@@H](c3ccc(=O)oc3)CC[C@]12O` [Compound C16, N-((3S,5R,8R,9S,10S,13R,14S,17R)-14-hydroxy-10,13-dimethyl-17-(2-oxo-2H-pyran-5-yl)hexadecahydro-1H-cyclopenta[a]phenanthren-3-yl)methanesulfonamide], for which the pIC50 (A549, 72 h) is > 7.70.
On to `C[C@]12CC[C@H](N)C[C@H]1CC[C@@H]1[C@@H]2CC[C@]2(C)[C@@H](c3ccc(=O)oc3)CC[C@]12O` [Compound C35, 5-((3S,5R,8R,9S,10S,13R,14S,17R)-3-amino-14-hydroxy-10,13-dimethylhexadecahydro-1H-cyclopenta[a]phenanthren-17-yl)-2H-pyran-2-one], for which, where the note is “A549, 72 h”, the negative-log IC50 (pIC50) is > 7.70.
